How the values were obtained:
[1] = pH sensitivity of gamma in single layer film, normalized to C-1; conditions: developer pH 9.75, 10, 10.37, normalized by division with pH sensitivity of C-1
Source text: To measure the pH sensitivity of a single layer film, the following was done. A stepped exposure was applied to three identical strips of the film. One strip was processed with the normal C-41 process at pH of about 10. A second strip was processed in the same developer in which the pH was decreased to 9.75, while the third strip was processed in the same developer in which the pH was increased to 10.37.
(§1) The emulsion was an undyed, but chemically sensitized, 0.7 micron polymorphic silver iodobromide emulsion containing 3.5% mole of iodide. The coating structure is shown below.
(§2) Monolayer coatings were panchromatically exposed and processed in developer solutions of different pH values. A stop bath was used to eliminate any complications due to the continuing coupling reaction. The processing procedure and solution formulations are listed below.
The D-logE Status M gamma was measured for each film and the three gammas were used as input to a least-squares regression in which gamma was the response, and the factors were pH and pH-squared in a linear model with an intercept. Before regression, the three pH values were shifted (centered) to have a mean of zero (-0.31, 0, 0.31). The coefficient of the main effect, pH, in the regression is the pH sensitivity of gamma, which was normalized by division with the pH sensitivity of the comparison coupler C-1 (Table 2) that was processed at the same time as each test coupler.

[2] = Green pH sensitivity of gamma in multilayer film (format ML-A), normalized to C-1; conditions: for pH Sensitivity: multilayer film ML-A, developer pH 9.95 to 10.15, relative normalized pH sensitivity of green gamma vs C-1
Source text: The formulas for the multilayer organic components are provided following the examples. The multilayer format used was an ISO 200 speed format (designated ML-A).
Table 4 indicates the experiment number, whether it is a comparative or inventive example, the magenta coupler used in the designated green sensitive layers and the laydown in each of those layers.
To measure the green pH sensitivity of a multilayer film, the following was done. A neutral stepped exposure was applied to nine 35-mm strips of the film. One strip was processed with the normal C-41 process. The other eight strips were processed in a 2**3 factorial design in which the pH of the developer solution was varied from 9.95 to 10.15, the bromide was varied from 0.8 g/L to 1.8 g/L, and the concentration of the developer was varied from 3.5 g/L to 5.5 g/L. The green Status M photographic D-logE gammas were measured for each film at mid-exposure, and each gamma was normalized by dividing by the average gamma for all nine strips.
The nine normalized gammas that were obtained at the nine combinations of pH, Br, and developer concentration were used as input to a least-squares regression in which normalized gamma was the response, and the factors were pH, Br, and developer concentration in a linear model with an intercept. The coefficient of pH is the sensitivity of normalized gamma to pH, and this was further normalized (divided) by the sensitivity of the comparison coupler C-1 (Table 2) that was processed at the same time as each test coupler.

[3] = Activity of image coupler in single layer film (maximum slope relative to control coupler C-1); conditions: developer pH=10, ratio to maximum slope of C-1 control, higher ratio implies higher activity
Description: as §1, §2
Further single layer film elements were prepared as above, given a stepped exposure and processed (developer pH=10). The activity of an image coupler was determined by determining the maximum slope between any two adjacent steps for the coupler and dividing by the maximum slope of a corresponding control sample containing coupler C-1 processed at the same time as the sample. A higher ratio implies higher activity. The logP of the R3 fragment (a quantity also referred to as π) was calculated as described in the Detailed Description of the invention.

magenta dye formed from coupler remaining in the film after processing ([2]; multilayer, solubility and washout of its magenta dye) | Structure (SMILES) | pH Sensitivity [1] | pH Sensitivity [2] | Activity [3] | Activity ([3]; listed as SL-11)
– | CCCCCCCCCCCCC(c1n[nH]c2c(Cl)c(C)nn12)N(CCCCCCCC)C(=O)CCC(=O)O (centres unmarked) [Mag C-1] | 1.00 | 1.00 | 1.00 | –
– | CCCCCCCCCCC(Oc1ccc(S(=O)(=O)c2ccc(O)cc2)cc1)C(=O)Nc1ccc(CCCc2n[nH]c3c(Cl)c(C)nn23)cc1 (centres unmarked) [Mag C-2] | 1.39 | – | 0.51 | –
– | CCCCCCCCCCCCCCCC(=O)N(c1ccc(CC(=O)O)cc1)C(c1ccccc1)c1n[nH]c2c(Cl)c(C)nn12 (centres unmarked) [Mag C-4] | 1.32 | – | 0.87 | –
– | CCCCCCCCCCCCCCCC(=O)N(Cc1ccc(C(=O)O)cc1)C(C)c1n[nH]c2c(Cl)c(C)nn12 (centres unmarked) [Mag C-5] | 1.32 | – | 1.34 | –
– | CCCCCCCCCCCCCCCCCC(=O)N(CCCCCC(=O)O)C(C)c1n[nH]c2c(Cl)c(C)nn12 (centres unmarked) [Mag C-7] | 1.32 | – | 1.04 | –
– | CCCCCCCCCCCCCCCC(=O)N(c1cccc(CC(=O)O)c1)C(c1ccccc1)c1n[nH]c2c(Cl)c(C)nn12 (centres unmarked) [Mag C-8] | 1.43 | – | 1.26 | –
– | CCCCCCCCCCCCCCCC(=O)N(c1cccc(C(=O)O)c1)C(C)c1n[nH]c2c(Cl)c(C)nn12 (centres unmarked) [Mag C-10] | 0.51 | 0.66 | 1.52 | –
– | CCCCCCCCCCCCCCCCCC(=O)N(c1cccc(C(=O)O)c1)C(C)c1n[nH]c2c(Cl)c(C)nn12 (centres unmarked) [Mag C-11] | 1.05 | 0.63 | 1.33 | –
– | CCCCCCCCCCCCCCCCCCCC(=O)N(CCCC(=O)O)C(c1ccccc1)c1n[nH]c2c(Cl)c(C)nn12 (centres unmarked) [Mag C-12] | 0.75 | – | 0.91 | –
– | CCCCCCCCCCCCC(c1n[nH]c2c(Cl)c(C)nn12)N(C(=O)CCCCC)c1cccc(C(=O)O)c1 (centres unmarked) [Mag C-13] | – | – | 1.33 | –
– | CCCCCCCCCCCCCCCCCCCCCC(=O)N(c1cccc(C(=O)OC)c1)C(C)c1n[nH]c2c(Cl)c(C)nn12 (centres unmarked) [Mag C-14] | – | – | 0.43 | substantial loss of activity
very little | CCCCCC(=O)N(c1cccc(C(=O)O)c1)C(C)c1n[nH]c2c(Cl)c(C)nn12 (centres unmarked) [Mag C-15] | – | 0.41 | – | –
– | CCCCCCCCCCCCCCCCCCCCCC(=O)N(c1cccc(C(=O)O)c1)C(C)c1n[nH]c2c(Cl)c(C)nn12 (centres unmarked) [Mag-1] | 0.83 | 0.52 | 1.50 | –
– | CCCCCCCCCCCCC(Oc1ccc(C(C)(C)CC(C)(C)C)cc1)C(=O)N(c1cccc(C(=O)O)c1)C(C)c1n[nH]c2c(Cl)c(C)nn12 (centres unmarked) [Mag-6] | 0.75 | – | 1.15 | –
– | CCCCCCCCCCCCCCCc1cccc(OC(CCCC)C(=O)N(c2cccc(C(=O)O)c2)C(C)c2n[nH]c3c(Cl)c(C)nn23)c1 (centres unmarked) [Mag-7] | 0.83 | 0.59 | 1.22 | –
– | CCCCCCCCCCCCCCCCCCCCCC(=O)N(c1cccc(C(=O)O)c1)C(CC)c1n[nH]c2c(Cl)c(C)nn12 (centres unmarked) [Mag-11] | – | 0.56 | – | –
